According to ChEMBL document CHEMBL5465560, “Selectivity Literature for EUbOPEN Chemogenomic Library” (2024):

Key:
[1] = system: Receptor-type tyrosine-protein kinase FLT3 (Homo sapiens), P36888 [UNDEFINED MUTATION]; assay: Selectivity interaction (LanthaScreen Eu Kinase Binding Assay) EUB0001632a FLT3; settings: at 10 µM
[2] = target: Tyrosine-protein kinase ABL1 (Homo sapiens, UniProt P00519); assay: Selectivity interaction (KinomeScan (DiscoverX)) EUB0001868a ABL1; settings: at 1 µM
[3] = target: T1, Mitogen-activated protein kinase kinase kinase 19 (Homo sapiens) (UniProt Q56UN5); assay: Selectivity interaction (KinomeScan (DiscoverX)) EUB0000607a MAP3K19; settings: at 10 µM
T1 sequence (whole entry): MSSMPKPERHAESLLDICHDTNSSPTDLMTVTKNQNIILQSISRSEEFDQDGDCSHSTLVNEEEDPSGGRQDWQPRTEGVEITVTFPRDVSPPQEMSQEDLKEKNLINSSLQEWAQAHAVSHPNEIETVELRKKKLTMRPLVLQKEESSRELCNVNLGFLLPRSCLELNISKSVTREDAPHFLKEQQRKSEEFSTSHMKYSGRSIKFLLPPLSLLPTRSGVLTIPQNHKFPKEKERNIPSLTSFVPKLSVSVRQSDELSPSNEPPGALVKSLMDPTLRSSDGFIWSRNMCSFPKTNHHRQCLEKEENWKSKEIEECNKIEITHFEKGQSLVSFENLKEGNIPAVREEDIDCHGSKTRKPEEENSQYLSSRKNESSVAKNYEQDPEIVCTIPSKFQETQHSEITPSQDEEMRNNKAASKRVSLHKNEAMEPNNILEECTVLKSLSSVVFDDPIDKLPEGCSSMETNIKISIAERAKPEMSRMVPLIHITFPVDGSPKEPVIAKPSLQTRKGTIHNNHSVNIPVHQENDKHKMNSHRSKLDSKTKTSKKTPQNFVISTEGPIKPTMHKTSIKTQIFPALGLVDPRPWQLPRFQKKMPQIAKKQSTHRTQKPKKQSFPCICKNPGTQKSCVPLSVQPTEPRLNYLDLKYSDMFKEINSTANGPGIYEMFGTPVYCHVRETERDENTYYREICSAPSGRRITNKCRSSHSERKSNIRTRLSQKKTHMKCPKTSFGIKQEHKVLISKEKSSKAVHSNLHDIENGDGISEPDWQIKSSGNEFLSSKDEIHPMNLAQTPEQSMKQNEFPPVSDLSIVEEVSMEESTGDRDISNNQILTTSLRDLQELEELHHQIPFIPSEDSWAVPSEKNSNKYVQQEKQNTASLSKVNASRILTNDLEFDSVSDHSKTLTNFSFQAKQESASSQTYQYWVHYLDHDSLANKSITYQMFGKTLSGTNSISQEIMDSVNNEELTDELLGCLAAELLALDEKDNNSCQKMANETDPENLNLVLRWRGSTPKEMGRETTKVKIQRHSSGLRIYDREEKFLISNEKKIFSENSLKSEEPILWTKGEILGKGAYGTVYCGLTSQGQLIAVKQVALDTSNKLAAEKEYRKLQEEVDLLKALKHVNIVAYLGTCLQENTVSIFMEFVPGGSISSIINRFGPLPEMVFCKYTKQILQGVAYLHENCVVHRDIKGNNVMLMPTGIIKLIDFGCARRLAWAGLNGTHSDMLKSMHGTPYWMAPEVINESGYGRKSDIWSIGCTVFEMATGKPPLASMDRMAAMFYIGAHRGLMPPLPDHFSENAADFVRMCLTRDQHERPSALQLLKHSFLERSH

[4] = target: T2, Dual specificity mitogen-activated protein kinase kinase 7 (Homo sapiens) (UniProt O14733); assay: Selectivity interaction (KinomeScan (DiscoverX)) EUB0000595a MAP2K7; settings: at 10 µM
T2 sequence (whole entry): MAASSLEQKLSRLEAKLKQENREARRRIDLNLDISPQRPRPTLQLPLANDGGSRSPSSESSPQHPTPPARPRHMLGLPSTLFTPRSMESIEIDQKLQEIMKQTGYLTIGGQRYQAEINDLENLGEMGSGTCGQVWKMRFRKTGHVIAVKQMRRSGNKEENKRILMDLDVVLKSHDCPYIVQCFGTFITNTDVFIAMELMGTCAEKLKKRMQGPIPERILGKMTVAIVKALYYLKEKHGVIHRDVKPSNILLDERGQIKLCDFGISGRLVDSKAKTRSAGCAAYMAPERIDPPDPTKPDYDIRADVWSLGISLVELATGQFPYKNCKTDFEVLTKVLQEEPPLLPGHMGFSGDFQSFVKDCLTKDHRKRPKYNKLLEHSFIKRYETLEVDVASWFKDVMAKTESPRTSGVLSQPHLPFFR

[5] = target: T2, Dual specificity mitogen-activated protein kinase kinase 7 (Homo sapiens); assay: Selectivity interaction (KinomeScan (DiscoverX)) EUB0001049a MAP2K7; settings: at 1 µM
[6] = target: Protein kinase C alpha type (Homo sapiens, UniProt P17252); assay: Selectivity interaction (Kinase screening (Upstate/Millipore)) EUB0000604a PRKCA
[7] = target: Serine/threonine-protein kinase Nek4 (Homo sapiens) (UniProt P51957); assay: Selectivity interaction (KinomeScan (DiscoverX)) EUB0000655a NEK4; settings: at 10 µM
[8] = target: T3, Dual serine/threonine and tyrosine protein kinase (Homo sapiens) (UniProt Q6XUX3); assay: Selectivity interaction (KinomeScan (DiscoverX)) EUB0000618a DSTYK; settings: at 10 µM
T3 sequence (whole entry): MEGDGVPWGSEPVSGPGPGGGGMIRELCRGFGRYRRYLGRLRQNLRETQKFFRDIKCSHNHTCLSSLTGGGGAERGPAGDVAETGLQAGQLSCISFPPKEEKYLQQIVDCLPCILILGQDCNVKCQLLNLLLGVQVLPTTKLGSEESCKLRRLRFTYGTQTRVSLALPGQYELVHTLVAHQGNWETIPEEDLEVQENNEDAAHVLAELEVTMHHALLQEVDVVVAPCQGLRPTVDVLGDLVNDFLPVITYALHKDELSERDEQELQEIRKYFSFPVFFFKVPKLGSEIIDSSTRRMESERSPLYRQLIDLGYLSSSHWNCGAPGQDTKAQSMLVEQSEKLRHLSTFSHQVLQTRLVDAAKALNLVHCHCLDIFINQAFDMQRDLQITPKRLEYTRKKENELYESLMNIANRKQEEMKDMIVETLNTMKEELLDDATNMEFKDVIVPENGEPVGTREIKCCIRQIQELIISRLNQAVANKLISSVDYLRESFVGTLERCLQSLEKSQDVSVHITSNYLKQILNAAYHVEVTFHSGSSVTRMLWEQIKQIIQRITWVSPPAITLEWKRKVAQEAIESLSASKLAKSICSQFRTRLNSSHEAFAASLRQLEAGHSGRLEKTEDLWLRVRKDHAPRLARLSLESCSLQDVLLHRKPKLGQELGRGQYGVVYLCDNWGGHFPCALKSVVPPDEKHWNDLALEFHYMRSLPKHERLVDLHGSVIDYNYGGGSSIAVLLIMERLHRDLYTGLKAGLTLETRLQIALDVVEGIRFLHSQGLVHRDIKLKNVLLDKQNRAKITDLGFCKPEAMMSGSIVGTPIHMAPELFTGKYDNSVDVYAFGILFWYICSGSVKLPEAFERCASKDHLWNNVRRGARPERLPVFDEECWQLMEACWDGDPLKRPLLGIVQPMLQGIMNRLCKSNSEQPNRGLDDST

Sequence of Tyrosine-protein kinase ABL1 (P00519 whole entry): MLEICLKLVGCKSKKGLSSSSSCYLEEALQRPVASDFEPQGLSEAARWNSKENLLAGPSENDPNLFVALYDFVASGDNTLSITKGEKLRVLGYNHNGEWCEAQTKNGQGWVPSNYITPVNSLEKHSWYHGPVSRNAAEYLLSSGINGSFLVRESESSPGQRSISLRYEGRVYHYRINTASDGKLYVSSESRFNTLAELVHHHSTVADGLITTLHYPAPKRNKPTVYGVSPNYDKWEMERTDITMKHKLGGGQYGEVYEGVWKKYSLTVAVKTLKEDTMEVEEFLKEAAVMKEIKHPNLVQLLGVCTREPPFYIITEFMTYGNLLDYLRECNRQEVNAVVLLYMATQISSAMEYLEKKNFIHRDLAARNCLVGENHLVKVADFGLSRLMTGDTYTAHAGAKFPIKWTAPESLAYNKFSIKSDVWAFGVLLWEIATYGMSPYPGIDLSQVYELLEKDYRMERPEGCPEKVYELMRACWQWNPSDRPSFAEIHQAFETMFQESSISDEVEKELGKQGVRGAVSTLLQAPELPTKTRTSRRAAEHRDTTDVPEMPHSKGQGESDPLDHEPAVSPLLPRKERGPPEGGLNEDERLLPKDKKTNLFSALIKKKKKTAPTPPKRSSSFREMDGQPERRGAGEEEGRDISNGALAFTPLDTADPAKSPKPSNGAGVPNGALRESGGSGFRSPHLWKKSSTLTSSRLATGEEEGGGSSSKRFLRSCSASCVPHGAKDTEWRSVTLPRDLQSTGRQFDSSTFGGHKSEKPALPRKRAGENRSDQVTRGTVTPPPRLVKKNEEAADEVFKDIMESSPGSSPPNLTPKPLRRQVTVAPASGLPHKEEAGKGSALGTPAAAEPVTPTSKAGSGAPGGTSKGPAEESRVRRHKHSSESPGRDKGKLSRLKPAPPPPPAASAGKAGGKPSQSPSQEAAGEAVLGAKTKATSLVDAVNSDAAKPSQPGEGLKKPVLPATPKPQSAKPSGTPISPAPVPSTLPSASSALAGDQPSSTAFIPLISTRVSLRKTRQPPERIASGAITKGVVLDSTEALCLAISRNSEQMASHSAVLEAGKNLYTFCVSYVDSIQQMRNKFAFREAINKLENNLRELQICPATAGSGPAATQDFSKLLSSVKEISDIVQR
Sequence of Serine/threonine-protein kinase Nek4 (Homo sapiens) (P51957 whole entry, looked up): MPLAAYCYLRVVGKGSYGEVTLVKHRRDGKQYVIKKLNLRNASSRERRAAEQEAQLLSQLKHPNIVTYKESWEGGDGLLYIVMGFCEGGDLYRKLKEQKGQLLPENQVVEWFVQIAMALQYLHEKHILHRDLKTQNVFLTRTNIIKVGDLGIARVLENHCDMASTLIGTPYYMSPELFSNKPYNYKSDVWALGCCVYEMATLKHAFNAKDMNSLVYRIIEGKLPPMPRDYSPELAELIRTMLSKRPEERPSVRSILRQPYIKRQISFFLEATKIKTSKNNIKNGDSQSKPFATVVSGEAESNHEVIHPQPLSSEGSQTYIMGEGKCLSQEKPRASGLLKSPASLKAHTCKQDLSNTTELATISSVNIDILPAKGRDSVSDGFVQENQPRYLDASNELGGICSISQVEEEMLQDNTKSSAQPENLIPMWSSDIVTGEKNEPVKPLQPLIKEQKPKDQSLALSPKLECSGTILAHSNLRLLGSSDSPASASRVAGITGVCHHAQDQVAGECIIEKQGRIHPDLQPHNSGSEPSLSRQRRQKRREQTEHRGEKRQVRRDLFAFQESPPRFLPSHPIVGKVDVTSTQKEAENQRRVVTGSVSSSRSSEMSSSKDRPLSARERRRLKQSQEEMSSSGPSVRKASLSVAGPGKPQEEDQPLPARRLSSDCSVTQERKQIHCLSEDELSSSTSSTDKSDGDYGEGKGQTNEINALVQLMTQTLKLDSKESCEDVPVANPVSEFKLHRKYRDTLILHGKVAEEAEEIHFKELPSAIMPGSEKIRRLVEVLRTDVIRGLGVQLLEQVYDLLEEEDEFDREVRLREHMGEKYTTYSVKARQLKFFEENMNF
Sequence of Receptor-type tyrosine-protein kinase FLT3 (Homo sapiens), P36888 [UNDEFINED MUTATION] (P36888 whole entry, looked up, change not shown): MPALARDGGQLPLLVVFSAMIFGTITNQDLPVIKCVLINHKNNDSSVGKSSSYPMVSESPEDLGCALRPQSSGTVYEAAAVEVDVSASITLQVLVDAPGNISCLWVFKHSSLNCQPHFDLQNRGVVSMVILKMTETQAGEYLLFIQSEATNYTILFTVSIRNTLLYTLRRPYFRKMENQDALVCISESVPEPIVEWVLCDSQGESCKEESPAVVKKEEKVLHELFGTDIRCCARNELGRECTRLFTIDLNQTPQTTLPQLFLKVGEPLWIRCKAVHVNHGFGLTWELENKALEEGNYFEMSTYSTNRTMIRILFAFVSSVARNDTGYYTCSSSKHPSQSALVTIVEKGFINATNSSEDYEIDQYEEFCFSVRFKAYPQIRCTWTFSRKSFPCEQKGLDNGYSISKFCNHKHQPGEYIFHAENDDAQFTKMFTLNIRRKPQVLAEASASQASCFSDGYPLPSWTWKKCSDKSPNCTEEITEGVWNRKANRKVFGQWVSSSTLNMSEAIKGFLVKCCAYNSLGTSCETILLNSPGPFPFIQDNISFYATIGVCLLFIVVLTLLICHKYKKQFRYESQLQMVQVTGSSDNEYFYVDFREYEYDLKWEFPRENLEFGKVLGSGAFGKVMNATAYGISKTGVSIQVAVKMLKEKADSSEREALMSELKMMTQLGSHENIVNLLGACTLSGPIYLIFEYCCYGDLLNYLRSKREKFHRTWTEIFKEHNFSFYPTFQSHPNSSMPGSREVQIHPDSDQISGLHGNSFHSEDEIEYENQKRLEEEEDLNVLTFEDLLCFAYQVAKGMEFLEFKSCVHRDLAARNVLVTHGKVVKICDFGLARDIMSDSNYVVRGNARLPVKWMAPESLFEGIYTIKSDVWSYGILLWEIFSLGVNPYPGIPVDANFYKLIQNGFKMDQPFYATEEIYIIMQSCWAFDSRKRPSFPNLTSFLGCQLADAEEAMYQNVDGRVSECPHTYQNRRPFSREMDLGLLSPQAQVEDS

Question: How did the % of inhibition [1] turn out when `Cn1cc(-n2cnc3c(NCc4nc5cc(Cl)c(Cl)cc5[nH]4)nc(N4CCOCC4)nc32)cn1` was run?
Answer: -1.89%

Question: With `Cc1cc(-c2ccnc(Nc3cnn(C)c3)n2)ccc1CNC(=O)N1CC(OC(C)C)C1` as the compound, how does the % of control [2] read?
Answer: 21%

Question: For `CNC(=O)Nc1ccc(-c2nc(N3CC4CCC(C3)O4)c3cnn(C4CCC5(CC4)OCCO5)c3n2)cc1`, which % of control [3] is on record?
Answer: 100%

Question: With `COCC(=O)NC/C=C/c1ccc2ncnc(Nc3ccc(Oc4ccc(C)nc4)c(C)c3)c2c1` [CP-724714] as the compound, how does the % of control [4] read?
Answer: 100%

Question: `COc1cc(Nc2nc(C)cc(-c3cnn4nc(OC)ccc34)n2)cc(C(F)(F)F)c1` was tested. Which % of control [5] did it give?
Answer: 99%

Question: For `Cc1cnc(Nc2ccc(F)cc2Cl)nc1-c1c[nH]c(C(=O)N[C@H](CO)c2cccc(Cl)c2)c1`, which % of inhibition [6] is on record?
Answer: 12%

Question: For `CN(C)CCOc1ccc(-c2nc(-c3ccncc3)c(-c3ccc4c(c3)CC/C4=N\O)[nH]2)cc1`, which % of control [7] is on record?
Answer: 100%

Question: Which % of control [8] does the source give for `O[C@H]1CC[C@H](Nc2ncc3nc(Nc4c(F)cc(F)cc4F)n([C@H]4CCOC4)c3n2)CC1` here?
Answer: 91%
